From US20090041897A1, “Transparent, concentrated liquid nutritional supplement composition” (priority 2007, published 2009)

How the values were obtained:
[1] = general statement in the description; cited from earlier work
[2] = solubility, turbidity and stability of ingredients in water; format: physicochemical; details: minerals considered for the concentrate
Experimental: Each ingredient or nutrient is evaluated at suitable concentration (based on actual usage level) in 100 ml deionized water enclosed in glass bottle and checked for turbidity. Only non turbidity producing materials (estimated at 25 NTU or less) were selected. Visual evaluation also conducted to ensure clear liquids are obtained. Solutions with an estimated 30 NTG and above are eliminated as potential ingredients. Bottles were also checked for precipitated solids at 0, 2, 4, 6, 8, 10 and 24 hours at room temperature. If precipitate is observed, the ingredient/nutrient is rendered unusable for producing appealing liquid nutritional supplement. Furthermore, ingredients are evaluated in a final diluted liquid nutritional supplement and/or diluents to ensure that dilution will not change the physical appearance of concentrates. […] Insoluble materials are excluded from the formulation. Saturation point is also observed for each ingredient/nutrient to ensure that no precipitation will occur. […] Each ingredient or nutrient is evaluated at suitable concentration (based on actual usage level) in 100 ml deionized water enclosed in glass bottle and checked turbidity. […] Furthermore, ingredients are evaluated in a final diluted liquid nutritional supplement to ensure that dilution will not change the physical appearance of concentrates. […]

Row | Compound | solubility in water [1] | further results
1 | O=C1O[C@H]([C@@H](O)CO)C(O)=C1O [Vitamin C, Ascorbic Acid] | – | stability in water [1]: degrades in water in fast fashion
2 | CS(C)(=O)=O [MSM, Methyl-Sulfonyl-Methane] | readily water soluble | –
3 | Chondroitin sulfate | soluble in water | –
4 | Hydrolyzed Collagen | readily water soluble | –
5 | [Mg+2] [magnesium] | – | effect on clarity of concentrate and finished liquid nutritional supplement [2]: induce cloudiness and turbidity; solubility [2]: not soluble
6 | Gelatin | soluble only in hot water | –
7 | N[C@H]1C(O)O[C@H](CO)[C@@H](O)[C@@H]1O (some centres unmarked) [Glucosamine] | water-soluble | –
